Reference: US20230111310A1, “CARBOXYLIC ACID DERIVATIVE-SUBSTITUTED IMINO ARYL COMPOUND, PREPARATION METHOD THEREFOR, HERBICIDAL COMPOSITION AND USE THEREOF” (Qingdao Kingagroot Chemical Compound Co., Ltd., priority 2020, published 2023)

Tested on: Echinochloa crusgalli
Test: Weeding effect in post-emergence stage
Format: in vivo
Conditions: Dose 15 g/ha; level of fresh weight growth control rate
How it was run: (§1)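 Post-emergence spray tower; 2-3 leaf plants (2 wk after sowing, soil pots, greenhouse). Formulation: acetone, Tween 80, methyl oleate EC 1.5 liter/ha as synergist, water. Rates 500–7.5 g/ha. Growth control rate read at 3 wk; n=3, averaged.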

SMILES | Weeding effect in post-emergence stage, Echinochloa crusgalli
COCCOC(=O)C(C)O/N=C/c1cc(-n2c(=O)cc(C(F)(F)F)n(C)c2=O)c(F)cc1Cl (stereo not drawn) [Compound 230] | 5 (Level 5: growth control rate is above 85%)
CCOCCOC(=O)C(C)O/N=C/c1cc(-n2c(=O)cc(C(F)(F)F)n(C)c2=O)c(F)cc1Cl (stereo not drawn) [Compound 231] | 5 (Level 5: growth control rate is above 85%)
CCCCOCCOC(=O)C(C)O/N=C/c1cc(-n2c(=O)cc(C(F)(F)F)n(C)c2=O)c(F)cc1Cl (stereo not drawn) [Compound 232] | 5 (Level 5: growth control rate is above 85%)
CSCOC(=O)C(C)O/N=C/c1cc(-n2c(=O)cc(C(F)(F)F)n(C)c2=O)c(F)cc1Cl (stereo not drawn) [Compound 233] | 5 (Level 5: growth control rate is above 85%)
CSCCOC(=O)C(C)O/N=C/c1cc(-n2c(=O)cc(C(F)(F)F)n(C)c2=O)c(F)cc1Cl (stereo not drawn) [Compound 234] | 5 (Level 5: growth control rate is above 85%)
CC(=O)COC(=O)C(C)O/N=C/c1cc(-n2c(=O)cc(C(F)(F)F)n(C)c2=O)c(F)cc1Cl (stereo not drawn) [Compound 238] | 5 (Level 5: growth control rate is above 85%)
CCOC(=O)COC(=O)C(C)O/N=C/c1cc(-n2c(=O)cc(C(F)(F)F)n(C)c2=O)c(F)cc1Cl (stereo not drawn) [Compound 239] | 5 (Level 5: growth control rate is above 85%)

Same assay, conditions: Dose 60 g/ha; level of fresh weight growth control rate

SMILES | Weeding effect in post-emergence stage, Echinochloa crusgalli
CCCOC(=O)OC(=O)C(C)O/N=C/c1cc(-n2c(=O)cc(C(F)(F)F)n(C)c2=O)c(F)cc1Cl (stereo not drawn) [Compound 236] | 5 (Level 5: growth control rate is above 85%)

Tested on: Eleusine indica
Test: Weeding effect in post-emergence stage
Format: in vivo
Conditions: Dose 15 g/ha; level of fresh weight growth control rate
How it was run: as §1

SMILES | Weeding effect in post-emergence stage, Eleusine indica
COCCOC(=O)C(C)O/N=C/c1cc(-n2c(=O)cc(C(F)(F)F)n(C)c2=O)c(F)cc1Cl (stereo not drawn) [Compound 230] | 5 (Level 5: growth control rate is above 85%)
CCOCCOC(=O)C(C)O/N=C/c1cc(-n2c(=O)cc(C(F)(F)F)n(C)c2=O)c(F)cc1Cl (stereo not drawn) [Compound 231] | 5 (Level 5: growth control rate is above 85%)
CCCCOCCOC(=O)C(C)O/N=C/c1cc(-n2c(=O)cc(C(F)(F)F)n(C)c2=O)c(F)cc1Cl (stereo not drawn) [Compound 232] | 5 (Level 5: growth control rate is above 85%)
CSCOC(=O)C(C)O/N=C/c1cc(-n2c(=O)cc(C(F)(F)F)n(C)c2=O)c(F)cc1Cl (stereo not drawn) [Compound 233] | 5 (Level 5: growth control rate is above 85%)
CSCCOC(=O)C(C)O/N=C/c1cc(-n2c(=O)cc(C(F)(F)F)n(C)c2=O)c(F)cc1Cl (stereo not drawn) [Compound 234] | 5 (Level 5: growth control rate is above 85%)
CC(=O)COC(=O)C(C)O/N=C/c1cc(-n2c(=O)cc(C(F)(F)F)n(C)c2=O)c(F)cc1Cl (stereo not drawn) [Compound 238] | 5 (Level 5: growth control rate is above 85%)
CCOC(=O)COC(=O)C(C)O/N=C/c1cc(-n2c(=O)cc(C(F)(F)F)n(C)c2=O)c(F)cc1Cl (stereo not drawn) [Compound 239] | 5 (Level 5: growth control rate is above 85%)

Same assay, conditions: Dose 60 g/ha; level of fresh weight growth control rate

SMILES | Weeding effect in post-emergence stage, Eleusine indica
CCCOC(=O)OC(=O)C(C)O/N=C/c1cc(-n2c(=O)cc(C(F)(F)F)n(C)c2=O)c(F)cc1Cl (stereo not drawn) [Compound 236] | 5 (Level 5: growth control rate is above 85%)

Tested on: Alopecurus japonicus
Test: Weeding effect in post-emergence stage
Format: in vivo
Conditions: Dose 15 g/ha; level of fresh weight growth control rate
How it was run: as §1

SMILES | Weeding effect in post-emergence stage, Alopecurus japonicus
COCCOC(=O)C(C)O/N=C/c1cc(-n2c(=O)cc(C(F)(F)F)n(C)c2=O)c(F)cc1Cl (stereo not drawn) [Compound 230] | 5 (Level 5: growth control rate is above 85%)
CCOCCOC(=O)C(C)O/N=C/c1cc(-n2c(=O)cc(C(F)(F)F)n(C)c2=O)c(F)cc1Cl (stereo not drawn) [Compound 231] | 5 (Level 5: growth control rate is above 85%)
CCCCOCCOC(=O)C(C)O/N=C/c1cc(-n2c(=O)cc(C(F)(F)F)n(C)c2=O)c(F)cc1Cl (stereo not drawn) [Compound 232] | 5 (Level 5: growth control rate is above 85%)
CSCOC(=O)C(C)O/N=C/c1cc(-n2c(=O)cc(C(F)(F)F)n(C)c2=O)c(F)cc1Cl (stereo not drawn) [Compound 233] | 5 (Level 5: growth control rate is above 85%)
CSCCOC(=O)C(C)O/N=C/c1cc(-n2c(=O)cc(C(F)(F)F)n(C)c2=O)c(F)cc1Cl (stereo not drawn) [Compound 234] | 5 (Level 5: growth control rate is above 85%)
CC(=O)COC(=O)C(C)O/N=C/c1cc(-n2c(=O)cc(C(F)(F)F)n(C)c2=O)c(F)cc1Cl (stereo not drawn) [Compound 238] | 5 (Level 5: growth control rate is above 85%)
CCOC(=O)COC(=O)C(C)O/N=C/c1cc(-n2c(=O)cc(C(F)(F)F)n(C)c2=O)c(F)cc1Cl (stereo not drawn) [Compound 239] | 5 (Level 5: growth control rate is above 85%)

Same assay, conditions: Dose 60 g/ha; level of fresh weight growth control rate

SMILES | Weeding effect in post-emergence stage, Alopecurus japonicus
CCCOC(=O)OC(=O)C(C)O/N=C/c1cc(-n2c(=O)cc(C(F)(F)F)n(C)c2=O)c(F)cc1Cl (stereo not drawn) [Compound 236] | 5 (Level 5: growth control rate is above 85%)

Tested on: Abutilon theophrasti
Test: Weeding effect in post-emergence stage
Format: in vivo
Conditions: Dose 15 g/ha; level of fresh weight growth control rate
How it was run: as §1

SMILES | Weeding effect in post-emergence stage, Abutilon theophrasti
COCCOC(=O)C(C)O/N=C/c1cc(-n2c(=O)cc(C(F)(F)F)n(C)c2=O)c(F)cc1Cl (stereo not drawn) [Compound 230] | 5 (Level 5: growth control rate is above 85%)
CCOCCOC(=O)C(C)O/N=C/c1cc(-n2c(=O)cc(C(F)(F)F)n(C)c2=O)c(F)cc1Cl (stereo not drawn) [Compound 231] | 5 (Level 5: growth control rate is above 85%)
CCCCOCCOC(=O)C(C)O/N=C/c1cc(-n2c(=O)cc(C(F)(F)F)n(C)c2=O)c(F)cc1Cl (stereo not drawn) [Compound 232] | 5 (Level 5: growth control rate is above 85%)
CSCOC(=O)C(C)O/N=C/c1cc(-n2c(=O)cc(C(F)(F)F)n(C)c2=O)c(F)cc1Cl (stereo not drawn) [Compound 233] | 5 (Level 5: growth control rate is above 85%)
CSCCOC(=O)C(C)O/N=C/c1cc(-n2c(=O)cc(C(F)(F)F)n(C)c2=O)c(F)cc1Cl (stereo not drawn) [Compound 234] | 5 (Level 5: growth control rate is above 85%)
CC(=O)COC(=O)C(C)O/N=C/c1cc(-n2c(=O)cc(C(F)(F)F)n(C)c2=O)c(F)cc1Cl (stereo not drawn) [Compound 238] | 5 (Level 5: growth control rate is above 85%)
CCOC(=O)COC(=O)C(C)O/N=C/c1cc(-n2c(=O)cc(C(F)(F)F)n(C)c2=O)c(F)cc1Cl (stereo not drawn) [Compound 239] | 5 (Level 5: growth control rate is above 85%)

Same assay, conditions: Dose 60 g/ha; level of fresh weight growth control rate

SMILES | Weeding effect in post-emergence stage, Abutilon theophrasti
CCCOC(=O)OC(=O)C(C)O/N=C/c1cc(-n2c(=O)cc(C(F)(F)F)n(C)c2=O)c(F)cc1Cl (stereo not drawn) [Compound 236] | 5 (Level 5: growth control rate is above 85%)

Tested on: Setaria viridis
Test: Weeding effect in post-emergence stage
Format: in vivo
Conditions: Dose 15 g/ha; level of fresh weight growth control rate
How it was run: as §1

SMILES | Weeding effect in post-emergence stage, Setaria viridis
COCCOC(=O)C(C)O/N=C/c1cc(-n2c(=O)cc(C(F)(F)F)n(C)c2=O)c(F)cc1Cl (stereo not drawn) [Compound 230] | 5 (Level 5: growth control rate is above 85%)
CCOCCOC(=O)C(C)O/N=C/c1cc(-n2c(=O)cc(C(F)(F)F)n(C)c2=O)c(F)cc1Cl (stereo not drawn) [Compound 231] | 5 (Level 5: growth control rate is above 85%)
CCCCOCCOC(=O)C(C)O/N=C/c1cc(-n2c(=O)cc(C(F)(F)F)n(C)c2=O)c(F)cc1Cl (stereo not drawn) [Compound 232] | 5 (Level 5: growth control rate is above 85%)
CSCOC(=O)C(C)O/N=C/c1cc(-n2c(=O)cc(C(F)(F)F)n(C)c2=O)c(F)cc1Cl (stereo not drawn) [Compound 233] | 5 (Level 5: growth control rate is above 85%)
CSCCOC(=O)C(C)O/N=C/c1cc(-n2c(=O)cc(C(F)(F)F)n(C)c2=O)c(F)cc1Cl (stereo not drawn) [Compound 234] | 5 (Level 5: growth control rate is above 85%)
CC(=O)COC(=O)C(C)O/N=C/c1cc(-n2c(=O)cc(C(F)(F)F)n(C)c2=O)c(F)cc1Cl (stereo not drawn) [Compound 238] | 5 (Level 5: growth control rate is above 85%)
CCOC(=O)COC(=O)C(C)O/N=C/c1cc(-n2c(=O)cc(C(F)(F)F)n(C)c2=O)c(F)cc1Cl (stereo not drawn) [Compound 239] | 5 (Level 5: growth control rate is above 85%)

Same assay, conditions: Dose 60 g/ha; level of fresh weight growth control rate

SMILES | Weeding effect in post-emergence stage, Setaria viridis
CCCOC(=O)OC(=O)C(C)O/N=C/c1cc(-n2c(=O)cc(C(F)(F)F)n(C)c2=O)c(F)cc1Cl (stereo not drawn) [Compound 236] | 5 (Level 5: growth control rate is above 85%)

Tested on: Digitaria sanguinalis
Test: Weeding effect in post-emergence stage
Format: in vivo
Conditions: Dose 15 g/ha; level of fresh weight growth control rate
How it was run: as §1

SMILES | Weeding effect in post-emergence stage, Digitaria sanguinalis
COCCOC(=O)C(C)O/N=C/c1cc(-n2c(=O)cc(C(F)(F)F)n(C)c2=O)c(F)cc1Cl (stereo not drawn) [Compound 230] | 5 (Level 5: growth control rate is above 85%)
CCOCCOC(=O)C(C)O/N=C/c1cc(-n2c(=O)cc(C(F)(F)F)n(C)c2=O)c(F)cc1Cl (stereo not drawn) [Compound 231] | 5 (Level 5: growth control rate is above 85%)
CCCCOCCOC(=O)C(C)O/N=C/c1cc(-n2c(=O)cc(C(F)(F)F)n(C)c2=O)c(F)cc1Cl (stereo not drawn) [Compound 232] | 5 (Level 5: growth control rate is above 85%)
CSCOC(=O)C(C)O/N=C/c1cc(-n2c(=O)cc(C(F)(F)F)n(C)c2=O)c(F)cc1Cl (stereo not drawn) [Compound 233] | 5 (Level 5: growth control rate is above 85%)
CSCCOC(=O)C(C)O/N=C/c1cc(-n2c(=O)cc(C(F)(F)F)n(C)c2=O)c(F)cc1Cl (stereo not drawn) [Compound 234] | 5 (Level 5: growth control rate is above 85%)
CC(=O)COC(=O)C(C)O/N=C/c1cc(-n2c(=O)cc(C(F)(F)F)n(C)c2=O)c(F)cc1Cl (stereo not drawn) [Compound 238] | 5 (Level 5: growth control rate is above 85%)
CCOC(=O)COC(=O)C(C)O/N=C/c1cc(-n2c(=O)cc(C(F)(F)F)n(C)c2=O)c(F)cc1Cl (stereo not drawn) [Compound 239] | 5 (Level 5: growth control rate is above 85%)

Same assay, conditions: Dose 60 g/ha; level of fresh weight growth control rate

SMILES | Weeding effect in post-emergence stage, Digitaria sanguinalis
CCCOC(=O)OC(=O)C(C)O/N=C/c1cc(-n2c(=O)cc(C(F)(F)F)n(C)c2=O)c(F)cc1Cl (stereo not drawn) [Compound 236] | 5 (Level 5: growth control rate is above 85%)
